Experimental data: patent US20230086913A1, “USE OF SOPHOROLIPIDS AS FEED ADDITIVE” (DSM IP ASSETS B.V., priority 2017, published 2023)
Like-named read-outs stand apart in the source and are kept apart here.

How the values were obtained:
[1] = tested on: Microglial cells; test: Effect of sophorolipid pre-treatment on inflammatory mediators in LPS-stimulated microglia; type: cell-based, rats; conditions: E22 rat primary microglia, 24 h pre-treatment, LPS stimulation
Method: Microglial cells were obtained from primary microglial cultures from […] rats. On day 1, microglial cells were seeded in 96-well plates and allowed to adhere for 24 hours. On day 3, the microglial cells were pre-treated with sophorolipid for 24 hours (n=11). On day 4, the microglial cells were stimulated with lipopolysaccharide (LPS). On day 5, supernatants were collected and analysed for cytokines of interest.

[2] = tested on: human PBLs; test: Effect of sophorolipids on inflammatory mediators in LPS-treated human PBLs; type: cell-based; conditions: 1, 5 and 10 μm
Method: PBLs were isolated from human blood. PBLs were treated with LPS to induce inflammatory response in the presence of different concentrations (1 μm, 5 μm, and 10 μm) of six sophorolipids: […]); BSL(6'OH,6''OH); and BSL(6'Ac,6''Ac).

## Sophorolipid
[1]; read-out: PGE2 secretion, 1050
  IC50: 29.8 µM
[1]; read-out: TNF-alpha secretion, 1050
  IC50: 21.2 µM

## CCOC(=O)CCCCCCC/C=C\CCCCCC[C@H](C)O[C@@H]1O[C@H](COC(C)=O)[C@@H](O)[C@H](O)[C@H]1O[C@@H]1O[C@H](COC(C)=O)[C@@H](O)[C@H](O)[C@H]1O (relative stereo) [ESL(6′Ac,6″Ac), ethyl-17-L-[(2′-0-β-D-glucopyranosyl-β-D-glucopyranosyl)-oxy]-cis-9-octadecenoate-6′-6-diacetate]
[2]
  IL-1β secretion: decreased
  IL-6 secretion: decreased
  IL-8 secretion: decreased
  MIP-1β secretion: decreased
  TNF-α secretion: decreased

## CCOC(=O)CCCCCCC/C=C\CCCCCC[C@H](C)O[C@@H]1O[C@H](CO)[C@@H](O)[C@H](O)[C@H]1O[C@@H]1O[C@H](COC(C)=O)[C@@H](O)[C@H](O)[C@H]1O (relative stereo) [ESL(6′OH,6″Ac), ethyl-17-L-[(2′-0-β-D-glucopyranosyl-β-D-glucopyranosyl)-oxy]-cis-9-octadecenoate-6″-acetate]
[2]
  MIP-1β secretion: decreased
  TNF-α secretion: decreased

## CCCCOC(=O)CCCCCCC/C=C\CCCCCC[C@H](C)O[C@@H]1O[C@H](COC(C)=O)[C@@H](O)[C@H](O)[C@H]1O[C@@H]1O[C@H](COC(C)=O)[C@@H](O)[C@H](O)[C@H]1O (relative stereo) [BSL(6′Ac,6″Ac), butyl-17-L-[(2′-0-β-D-glucopyranosyl-β-D-glucopyranosyl)-oxy]-cis-9-octadecenoate-6′-6″-diacetate]
[2]
  TNF-α secretion: decreased
